Data taken from patent publication US20230331718A1, “COMPOSITIONS FOR MODULATING SPLICING” (Skyhawk Therapeutics, Inc., priority 2020, published 2023).

How the values were obtained:
[1] = test system: SMN2 Splicing D7 (SMN Δ7 transcript); assay: SMN Quantitative Splicing Assay (qPCR); format: cell-based, human; settings: Homo sapiens, Fibroblast, 24 h, SMA patient fibroblasts (GM03813), 2.5 µM to 0.6 nM
Procedure: Spinal muscular atrophy (SMA) patient fibroblasts (GM03813, Coriell) were plated in 96-well plates at 50,000 cells/well. […] Treated cells were lysed and cDNA synthesized using the Fast Advanced Cells-to-Ct kit (Thermofisher A35378) according to the manufacturer’s instructions. 2 µL of each cDNA were used in qPCR reactions. […] Reactions were run in a Quant Studio 6 qPCR instrument with default settings.

SMN2 Protein = assay: SMN Protein Assay (MSD); format: cell-based, human; settings: SMA patient fibroblasts, 48 hours, 0.6 nM to 2.5 µM
Procedure: Spinal muscular atrophy (SMA) patient fibroblasts were plated in 96-well plates at 7,000 cells/well. Compounds were added in concentrations ranging from 0.6 nM to 2.5 µM, incubated for 48 hours and the cells were lysed with 100 µL of lysis buffer. 20 µL of lysate was used for SMN protein measurement by Mesoscale Discovery (MSD) assay developed by PharmOptima (Michigan). A standard curve prepared with SMN protein ranging from 1 µg/ml to 19.5pg/ml was used in each MSD plate to calculate the absolute SMN protein amount in each sample.

SMILES | IC50 [1] [nM] | EC50 (SMN2 Protein) [nM]
CCc1coc2cc(-c3ncc(N(C)[C@@H]4C[C@H]5CC[C@H](N5)[C@@H]4F)nn3)c(O)cc2c1=O [Compound 93] | 16 to 50 | 16 to 50
Cc1cnc2cc(O)c(-c3ncc(N(C)[C@@H]4CC5CCC(N5)[C@@H]4F)nn3)cc2n1 (stereo partly drawn) [Compound 51] | 51 to 100 | 51 to 100
CCn1c(C)c(F)c2cc(-c3ncc(N(C)[C@H]4C[C@@H]5CCC(N5)[C@H]4F)nn3)c(O)cc2c1=O [Compound 223] | 0.01 to 15 | 0.01 to 15
[2H]C([2H])([2H])n1ccc2cc(-c3ncc(N(C)[C@@H]4CC5CCC(N5)[C@@H]4F)nn3)c(O)cc2c1=O (stereo partly drawn) [Compound 158] | 0.01 to 15 | 0.01 to 15
Cc1coc2cc(-c3ncc(N(C)C4CC5CCC(N5)[C@@H]4F)nn3)c(O)cc2c1=O (stereo partly drawn) [Compound 27] | 0.01 to 15 | 0.01 to 15
CCn1ccc2cc(-c3ncc(N(C)C4CC5CCC(N5)[C@H]4F)nn3)c(O)cc2c1=O (stereo partly drawn) [Compound 34] | 0.01 to 15 | 0.01 to 15
CCn1ncc2cc(-c3ncc(N(C)[C@@H]4CC5CC[C@H](N5)[C@@H]4F)nn3)c(O)cc2c1=O [Compound 164] | 51 to 100 | 16 to 50
CC(C)n1ncc2cc(-c3ncc(N(C)C4CC5CCC(N5)[C@@H]4F)nn3)c(O)cc2c1=O (stereo partly drawn) [Compound 29] | 501 to 10000 | 501 to 10000
Cc1cnc2cc(-c3ncc(N(C)[C@@H]4CC5CCCC(N5)[C@@H]4F)nn3)c(O)cc2n1 (stereo partly drawn) [Compound 105] | 101 to 500 | 16 to 50
CN(c1cnc(-c2cc3c(F)cn(C)c(=O)c3cc2O)nn1)[C@H]1C[C@@H]2CC[C@@](C)(N2)[C@H]1F [Compound 187] | 0.01 to 15 | 0.01 to 15
CN(c1cnc(-c2cc3c(=O)ccoc3cc2O)nn1)[C@H]1CC2CCCC(N2)[C@H]1F (stereo partly drawn) [Compound 110] | 51 to 100 | 101 to 500
CN(c1cnc(-c2cc3c(=O)n(C)ccc3cc2O)nn1)[C@H]1CC2CC[C@@H](N2)[C@H]1F [Compound 82] | 0.01 to 15 | 0.01 to 15
Cc1nc2cc(O)c(-c3ncc(N(C)[C@@H]4C[C@H]5CCC(N5)[C@@H]4F)nn3)cc2nc1C [Compound 86] | 51 to 100 | 51 to 100
CN(c1cnc(-c2cc3cnn(C)c(=O)c3cc2O)nn1)[C@H]1C[C@@H]2CC[C@@](C)(N2)[C@H]1F [Compound 183] | 0.01 to 15 | 0.01 to 15
Cc1cnc2cc(-c3ncc(N(C)[C@@H]4CC5CC[C@H](N5)[C@@H]4F)nn3)c(O)cc2n1 [Compound 53] | 51 to 100 | 101 to 500
[2H]C([2H])([2H])n1cnc2cc(-c3ncc(N(C)[C@@H]4CC5CC[C@H](N5)[C@@H]4F)nn3)c(O)cc2c1=O [Compound 178] | 0.01 to 15 | 0.01 to 15
CN(c1cnc(-c2cc3ncn(C(F)F)c(=O)c3cc2O)nn1)[C@@H]1C[C@H]2CCC(N2)[C@@H]1F [Compound 196] | 16 to 50 | 51 to 100
Cc1ncc2cc(O)c(-c3ncc(N(C)[C@H]4CC5CCC(N5)[C@H]4F)nn3)cc2n1 (stereo partly drawn) [Compound 40] | 16 to 50 | 0.01 to 15
[2H]C([2H])([2H])N(c1cnc(-c2cc3c(F)cn(CC)c(=O)c3cc2O)nn1)[C@@H]1C[C@H]2CC[C@H](N2)[C@@H]1F [Compound 202] | 51 to 100 | 0.01 to 15
CN(c1cnc(-c2cc3oc(C(F)(F)F)cc(=O)c3cc2O)nn1)[C@H]1C[C@@H]2CCCC(N2)[C@H]1F [Compound 166] | 16 to 50 | 0.01 to 15
Cc1cc2cc(-c3ncc(N(C)[C@H]4CC5CCC(N5)[C@H]4F)nn3)c(O)cc2cn1 (stereo partly drawn) [Compound 44] | 0.01 to 15 | 0.01 to 15
CN(c1cnc(-c2cc3oc(C(F)(F)F)cc(=O)c3cc2O)nn1)[C@@H]1CC2CCCC(N2)[C@@H]1F (stereo partly drawn) [Compound 161] | 51 to 100 | 0.01 to 15

SMILES | IC50 [1] [nM] | EC50 (SMN2 Protein) [nM]
Cc1cc(=O)c2cc(O)c(-c3ncc(N(C)C4CC5CCCC(N5)C4F)nn3)cc2o1 (stereo not drawn) [Compound 128] | 16 to 50 | 0.01 to 15
Cc1cc(=O)c2cc(-c3ncc(N(C)[C@@H]4C[C@H]5CC[C@H](N5)[C@@H]4F)nn3)c(O)cc2o1 (single isomer, unassigned) [Compound 1A] | 16 to 50 | 16 to 50
CCn1c(C)nc2cc(-c3ncc(N(C)[C@@H]4CC5CC(F)(F)C(C4)N5)nn3)c(O)cc2c1=O (stereo partly drawn) [Compound 214] | 501 to 10000 | 501 to 10000
CN(c1cnc(-c2cc3c(F)cn(C)c(=O)c3cc2O)nn1)[C@@H]1CC2COCC(N2)[C@@H]1F (stereo partly drawn) [Compound 219] | 16 to 50 | –
CN(c1cnc(-c2cc3ccn(C)c(=O)c3cc2O)nn1)[C@@H]1C[C@H]2CCC(N2)[C@@H]1F [Compound 7B] | 16 to 50 | 0.01 to 15
CN(c1cnc(-c2cc3cnn(C)c(=O)c3cc2O)nn1)C1CC2CCC(C)(N2)C1F (stereo not drawn) [Compound 184] | 0.01 to 15 | 0.01 to 15
CN(c1cnc(-c2cc3occc(=O)c3cc2O)nn1)[C@H]1C[C@]2(C)CC[C@@](C)(N2)[C@H]1F [Compound 62] | 0.01 to 15 | 0.01 to 15
CN(c1cnc(-c2cc3ncccc3cc2O)nn1)[C@H]1C[C@@H]2CCC(N2)[C@H]1F [Compound 58] | 16 to 50 | 16 to 50
CN(c1cnc(-c2cc3cncnc3cc2O)nn1)C1CC2CCC(N2)[C@@H]1F (stereo partly drawn) [Compound 25] | 101 to 500 | 501 to 10000
CN(c1cnc(-c2cc3cc[nH]c(=O)c3cc2O)nn1)[C@H]1C[C@@H]2CCC(N2)[C@H]1F [Compound 169] | 16 to 50 | 0.01 to 15
Cc1nc2cc(O)c(-c3ncc(N(C)[C@@H]4C[C@@]5(C)CC[C@](C)(N5)[C@@H]4F)nn3)cc2nc1C [Compound 88] | 16 to 50 | 51 to 100
CN(c1cnc(-c2cc3ccn(C)c(=O)c3cc2O)nn1)[C@@H]1CC2CCC(N2)[C@@H]1F (single isomer, unassigned) [Compound 4A] | 16 to 50 | 16 to 50
Cc1nc2cc(O)c(-c3ncc(N(C)[C@H]4C[C@@H]5CCC(N5)[C@H]4F)nn3)cc2nc1C [Compound 56] | 0.01 to 15 | 16 to 50
CN(c1cnc(-c2cc3cccnc3cc2O)nn1)C1CC2CCC(N2)[C@@H]1F (stereo partly drawn) [Compound 23] | 101 to 500 | 501 to 10000
Cc1cnc2cc(-c3ncc(N(C)[C@H]4C[C@@H]5CCC(N5)[C@H]4F)nn3)c(O)cc2n1 (single isomer, unassigned) [Compound 54] | 16 to 50 | 101 to 500
CN(c1cnc(-c2cc3ccn(CC(F)(F)F)c(=O)c3cc2O)nn1)[C@H]1C[C@@H]2CC[C@@H](N2)[C@H]1F [Compound 100] | 16 to 50 | 0.01 to 15
[2H]C([2H])([2H])n1ccc2cc(-c3ncc(N(C)[C@H]4CC5CCC(N5)[C@H]4F)nn3)c(O)cc2c1=O (stereo partly drawn) [Compound 157] | 16 to 50 | 16 to 50
CN(c1cnc(-c2cc3c(F)cn(C)c(=O)c3cc2O)nn1)[C@H]1CC2COCC(N2)[C@H]1F (stereo partly drawn) [Compound 218] | 51 to 100 | –
CCn1cc(F)c2cc(-c3ncc(N(C)[C@@H]4CC5COCC(N5)[C@@H]4F)nn3)c(O)cc2c1=O (stereo partly drawn) [Compound 222] | 101 to 500 | –
CCn1cc(F)c2cc(-c3ncc(N(C)[C@H]4CC5COCC(N5)[C@H]4F)nn3)c(O)cc2c1=O (stereo partly drawn) [Compound 221] | 501 to 10000 | –
CNC(=O)c1ccc2cc(-c3ncc(N(C)[C@@H]4C[C@H]5CC[C@@H](C4)N5)nn3)c(O)cc2n1 [Compound 9] | – | 0.01 to 15
